From ChEMBL document CHEMBL1909046, “DrugMatrix in vitro pharmacology data”

What was measured:
[1] = DRUGMATRIX: Phorbol Ester radioligand binding (ligand: [3H] PDBu); format: cell membranes, Mus musculus, ICR, Brain, Membrane; details: Not Active = under 50% inhibition at 10 µM
Estrogen receptor beta = Estrogen receptor beta (Homo sapiens, UniProt Q92731); details: sf9; further: in other assays of this panel Not Active means under 50% inhibition at 10 µM
Cytochrome P450 2E1 = Cytochrome P450 2E1 (Homo sapiens, UniProt P05181); details: bti-tn-5b1-4; further: in other assays of this panel Not Active means under 50% inhibition at 10 µM
Cytochrome P450 2E1, sequence (P05181 whole entry): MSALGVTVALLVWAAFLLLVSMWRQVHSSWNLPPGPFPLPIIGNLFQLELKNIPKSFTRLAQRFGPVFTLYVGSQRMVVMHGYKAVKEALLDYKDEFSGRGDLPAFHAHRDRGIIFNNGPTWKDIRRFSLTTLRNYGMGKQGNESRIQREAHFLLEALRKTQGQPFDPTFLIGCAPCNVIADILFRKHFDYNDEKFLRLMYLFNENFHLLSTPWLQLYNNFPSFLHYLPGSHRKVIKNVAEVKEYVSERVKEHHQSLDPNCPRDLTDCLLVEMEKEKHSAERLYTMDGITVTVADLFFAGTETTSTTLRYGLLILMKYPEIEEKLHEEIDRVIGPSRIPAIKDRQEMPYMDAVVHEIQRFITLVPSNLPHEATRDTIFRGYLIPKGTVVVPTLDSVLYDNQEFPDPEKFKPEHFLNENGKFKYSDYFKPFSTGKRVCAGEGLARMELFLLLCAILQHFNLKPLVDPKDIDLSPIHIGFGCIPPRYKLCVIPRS

[2] = biological target: T1, Nitric oxide synthase, inducible (Mus musculus, UniProt P29477); parameters: species or system Escherichia coli;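 further: inhibition of iNOS enzyme activity measured with L-arginine as substrate; in other assays of this panel Not Active means under 50% inhibition at 10 µM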
T1 sequence (P29477 whole entry): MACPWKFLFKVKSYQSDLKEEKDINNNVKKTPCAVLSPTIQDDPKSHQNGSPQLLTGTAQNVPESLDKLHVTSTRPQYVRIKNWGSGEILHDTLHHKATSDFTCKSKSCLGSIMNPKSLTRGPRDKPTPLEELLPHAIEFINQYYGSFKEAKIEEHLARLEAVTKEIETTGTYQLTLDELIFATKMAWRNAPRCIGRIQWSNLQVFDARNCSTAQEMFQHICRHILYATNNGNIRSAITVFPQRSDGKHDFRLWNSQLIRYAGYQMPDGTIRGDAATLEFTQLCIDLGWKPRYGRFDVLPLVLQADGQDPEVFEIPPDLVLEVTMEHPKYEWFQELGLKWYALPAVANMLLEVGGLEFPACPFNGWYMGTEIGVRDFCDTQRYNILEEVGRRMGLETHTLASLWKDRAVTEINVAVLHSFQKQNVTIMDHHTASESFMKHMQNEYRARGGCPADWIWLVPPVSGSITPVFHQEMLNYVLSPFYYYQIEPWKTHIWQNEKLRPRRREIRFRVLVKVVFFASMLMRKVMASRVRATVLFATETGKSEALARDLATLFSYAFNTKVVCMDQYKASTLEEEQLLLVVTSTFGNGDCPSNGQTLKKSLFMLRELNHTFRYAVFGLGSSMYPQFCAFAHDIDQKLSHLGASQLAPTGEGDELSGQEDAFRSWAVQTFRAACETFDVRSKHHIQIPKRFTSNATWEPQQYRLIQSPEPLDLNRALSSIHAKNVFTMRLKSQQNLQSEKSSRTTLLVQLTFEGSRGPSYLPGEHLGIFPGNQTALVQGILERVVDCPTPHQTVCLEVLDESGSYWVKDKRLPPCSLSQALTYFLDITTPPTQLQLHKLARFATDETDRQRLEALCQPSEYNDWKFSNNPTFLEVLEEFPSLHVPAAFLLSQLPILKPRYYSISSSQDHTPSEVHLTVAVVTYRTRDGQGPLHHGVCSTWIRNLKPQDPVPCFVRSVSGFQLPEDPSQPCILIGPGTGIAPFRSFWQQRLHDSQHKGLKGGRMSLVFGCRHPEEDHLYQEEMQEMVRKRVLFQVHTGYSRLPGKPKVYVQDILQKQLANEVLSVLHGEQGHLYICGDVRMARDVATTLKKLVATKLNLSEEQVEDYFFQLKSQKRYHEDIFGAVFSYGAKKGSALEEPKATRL

Substance-P receptor = Substance-P receptor (Homo sapiens, UniProt P25103); format: cell membranes, Membrane; details: cho; further: in other assays of this panel Not Active means under 50% inhibition at 10 µM
Substance-P receptor, sequence (P25103 whole entry): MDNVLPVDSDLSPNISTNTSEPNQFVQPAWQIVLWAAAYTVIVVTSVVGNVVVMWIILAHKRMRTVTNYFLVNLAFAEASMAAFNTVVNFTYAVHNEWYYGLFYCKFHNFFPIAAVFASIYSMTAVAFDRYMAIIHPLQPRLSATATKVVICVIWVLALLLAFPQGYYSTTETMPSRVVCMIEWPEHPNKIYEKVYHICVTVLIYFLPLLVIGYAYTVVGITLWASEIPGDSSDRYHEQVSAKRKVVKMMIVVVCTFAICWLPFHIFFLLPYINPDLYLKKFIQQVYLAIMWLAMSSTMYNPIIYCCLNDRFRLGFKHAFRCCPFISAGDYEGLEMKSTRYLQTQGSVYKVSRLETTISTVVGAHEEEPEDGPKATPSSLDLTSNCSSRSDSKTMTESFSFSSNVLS

[3] = biological target: 5-hydroxytryptamine receptor 1B (Rattus norvegicus, UniProt P28564); format: cell membranes, Wistar, Cerebral cortex, Membrane; further: in other assays of this panel Not Active means under 50% inhibition at 10 µM
5-hydroxytryptamine receptor 1B, sequence (P28564 whole entry): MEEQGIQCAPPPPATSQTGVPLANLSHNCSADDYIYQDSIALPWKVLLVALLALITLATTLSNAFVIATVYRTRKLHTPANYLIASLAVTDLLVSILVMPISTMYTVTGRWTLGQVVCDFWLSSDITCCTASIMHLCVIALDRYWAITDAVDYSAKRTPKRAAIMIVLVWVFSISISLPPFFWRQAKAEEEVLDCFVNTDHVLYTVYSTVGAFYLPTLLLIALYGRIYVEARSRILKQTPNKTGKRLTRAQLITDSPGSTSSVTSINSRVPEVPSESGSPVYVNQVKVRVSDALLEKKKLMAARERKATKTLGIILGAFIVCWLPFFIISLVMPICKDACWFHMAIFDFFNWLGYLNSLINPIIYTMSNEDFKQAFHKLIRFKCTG

[4] = biological target: Tyrosine-protein kinase Lck (Homo sapiens, UniProt P06239); assay: DRUGMATRIX: Protein Tyrosine Kinase, LCK enzyme inhibition (substrate: Poly(Glu:Tyr)); format: cell-based, Insect cells; details: insect cells; Not Active = under 50% inhibition at 10 µM
Tyrosine-protein kinase Lck, sequence (P06239 whole entry): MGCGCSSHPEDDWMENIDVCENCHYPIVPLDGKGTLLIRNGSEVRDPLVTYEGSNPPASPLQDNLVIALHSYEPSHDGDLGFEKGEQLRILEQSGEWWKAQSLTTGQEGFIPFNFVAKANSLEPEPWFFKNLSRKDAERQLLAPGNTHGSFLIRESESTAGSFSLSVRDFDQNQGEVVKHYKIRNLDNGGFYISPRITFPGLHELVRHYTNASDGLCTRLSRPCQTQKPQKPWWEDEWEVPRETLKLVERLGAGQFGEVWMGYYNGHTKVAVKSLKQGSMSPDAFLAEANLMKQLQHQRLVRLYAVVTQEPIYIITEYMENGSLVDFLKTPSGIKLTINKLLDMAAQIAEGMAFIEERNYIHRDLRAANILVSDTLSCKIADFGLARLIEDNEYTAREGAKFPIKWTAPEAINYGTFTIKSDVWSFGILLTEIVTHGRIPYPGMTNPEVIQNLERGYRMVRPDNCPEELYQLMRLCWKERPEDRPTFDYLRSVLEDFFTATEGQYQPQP

[5] = DRUGMATRIX: Glutamate, NMDA, Agonism radioligand binding (ligand: [3H] CGP-39653); format: cell membranes, Rattus norvegicus, Wistar, Cerebral cortex, Membrane; details: Not Active = under 50% inhibition at 10 µM

Estrogen receptor beta, sequence (Q92731 whole entry): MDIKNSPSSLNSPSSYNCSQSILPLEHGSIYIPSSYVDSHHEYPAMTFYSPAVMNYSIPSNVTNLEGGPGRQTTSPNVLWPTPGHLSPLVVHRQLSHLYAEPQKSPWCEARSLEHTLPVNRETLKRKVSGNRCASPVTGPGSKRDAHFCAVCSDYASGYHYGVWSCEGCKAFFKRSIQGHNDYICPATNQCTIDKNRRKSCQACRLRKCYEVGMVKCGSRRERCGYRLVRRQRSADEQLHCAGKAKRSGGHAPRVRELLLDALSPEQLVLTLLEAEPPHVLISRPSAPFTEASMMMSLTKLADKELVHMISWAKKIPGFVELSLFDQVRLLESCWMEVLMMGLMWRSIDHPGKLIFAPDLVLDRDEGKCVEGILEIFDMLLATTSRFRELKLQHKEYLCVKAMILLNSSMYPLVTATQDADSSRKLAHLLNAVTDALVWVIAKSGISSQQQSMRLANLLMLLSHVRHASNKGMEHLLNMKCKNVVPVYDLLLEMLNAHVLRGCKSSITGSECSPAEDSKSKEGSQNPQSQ

CCc1c2c(nc3ccc(OC(=O)N4CCC(N5CCCCC5)CC4)cc13)-c1cc3c(c(=O)n1C2)COC(=O)[C@]3(O)CC [IRINOTECAN]
Not Active: IC50 [1] | Ki [1] | IC50 (Estrogen receptor beta) | IC50 (Cytochrome P450 2E1) | Ki (Cytochrome P450 2E1) | IC50 [2] | IC50 (Substance-P receptor) | IC50 [3] | IC50 [4] | IC50 [5] | Ki [5]

CC(C(=O)O)c1cccc(C(=O)c2ccccc2)c1 (configuration not stated) [KETOPROFEN]
Not Active: IC50 [1] | Ki [1] | IC50 (Estrogen receptor beta) | IC50 (Cytochrome P450 2E1) | Ki (Cytochrome P450 2E1) | IC50 [2] | IC50 (Substance-P receptor) | IC50 [3] | IC50 [4] | IC50 [5] | Ki [5]

Nc1ccn([C@@H]2CS[C@H](CO)O2)c(=O)n1 [LAMIVUDINE]
Not Active: IC50 [1] | Ki [1] | IC50 (Estrogen receptor beta) | IC50 (Cytochrome P450 2E1) | Ki (Cytochrome P450 2E1) | IC50 [2] | IC50 (Substance-P receptor) | IC50 [3] | IC50 [4] | IC50 [5] | Ki [5]

O=S(=O)([O-])CCS.[Na+] [MESNA]
Not Active: IC50 [1] | Ki [1] | IC50 (Estrogen receptor beta) | IC50 (Cytochrome P450 2E1) | Ki (Cytochrome P450 2E1) | IC50 [2] | IC50 (Substance-P receptor) | IC50 [3] | IC50 [4] | IC50 [5] | Ki [5]

CC(=O)Nc1cccc(O)c1 [METACETAMOL]
Not Active: IC50 [1] | Ki [1] | IC50 (Estrogen receptor beta) | IC50 (Cytochrome P450 2E1) | Ki (Cytochrome P450 2E1) | IC50 [2] | IC50 (Substance-P receptor) | IC50 [3] | IC50 [4] | IC50 [5] | Ki [5]

Oc1ccc(OCc2ccccc2)cc1 [MONOBENZONE]
Not Active: IC50 [1] | Ki [1] | IC50 (Estrogen receptor beta) | IC50 (Cytochrome P450 2E1) | Ki (Cytochrome P450 2E1) | IC50 [2] | IC50 (Substance-P receptor) | IC50 [3] | IC50 [4] | IC50 [5] | Ki [5]

CC(C)(Oc1ccc(C2CCCc3ccccc32)cc1)C(=O)O (configuration not stated) [NAFENOPIN]
Not Active: IC50 [1] | Ki [1] | IC50 (Estrogen receptor beta) | IC50 (Cytochrome P450 2E1) | Ki (Cytochrome P450 2E1) | IC50 [2] | IC50 (Substance-P receptor) | IC50 [3] | IC50 [4] | IC50 [5] | Ki [5]

CC(C)[C@H]1CC[C@H](C(=O)N[C@H](Cc2ccccc2)C(=O)O)CC1 [NATEGLINIDE]
Not Active: IC50 [1] | Ki [1] | IC50 (Estrogen receptor beta) | IC50 (Cytochrome P450 2E1) | Ki (Cytochrome P450 2E1) | IC50 [2] | IC50 (Substance-P receptor) | IC50 [3] | IC50 [4] | IC50 [5] | Ki [5]

CCN[C@@H]1C[C@H](N)[C@@H](O[C@H]2OC(CN)=CC[C@H]2N)[C@H](O)[C@H]1O[C@H]1OC[C@](C)(O)[C@H](NC)[C@H]1O [NETILMICIN]
Not Active: IC50 [1] | Ki [1] | IC50 (Estrogen receptor beta) | IC50 (Cytochrome P450 2E1) | Ki (Cytochrome P450 2E1) | IC50 [2] | IC50 (Substance-P receptor) | IC50 [3] | IC50 [4] | IC50 [5] | Ki [5]

CCOC(=O)C1=C(C)NC(C)=C(C(=O)OC)C1c1cccc([N+](=O)[O-])c1 (configuration not stated) [NITRENDIPINE]
Not Active: IC50 [1] | Ki [1] | IC50 (Estrogen receptor beta) | IC50 (Cytochrome P450 2E1) | Ki (Cytochrome P450 2E1) | IC50 [2] | IC50 (Substance-P receptor) | IC50 [3] | IC50 [4] | IC50 [5] | Ki [5]

C#C[C@]1(OC(C)=O)CC[C@H]2[C@@H]3CCC4=CC(=O)CC[C@@H]4[C@H]3CC[C@@]21C [NORETHINDRONE ACETATE]
Not Active: IC50 [1] | Ki [1] | IC50 (Estrogen receptor beta) | IC50 (Cytochrome P450 2E1) | Ki (Cytochrome P450 2E1) | IC50 [2] | IC50 (Substance-P receptor) | IC50 [3] | IC50 [4] | IC50 [5] | Ki [5]

COc1ccc2[nH]c([S+]([O-])Cc3ncc(C)c(OC)c3C)nc2c1 (configuration not stated) [OMEPRAZOLE]
Not Active: IC50 [1] | Ki [1] | IC50 (Estrogen receptor beta) | IC50 (Cytochrome P450 2E1) | Ki (Cytochrome P450 2E1) | IC50 [2] | IC50 (Substance-P receptor) | IC50 [3] | IC50 [4] | IC50 [5] | Ki [5]

Cc1nccn1CC1CCc2c(c3ccccc3n2C)C1=O (configuration not stated) [ONDANSETRON]
Not Active: IC50 [1] | Ki [1] | IC50 (Estrogen receptor beta) | IC50 (Cytochrome P450 2E1) | Ki (Cytochrome P450 2E1) | IC50 [2] | IC50 (Substance-P receptor) | IC50 [3] | IC50 [4] | IC50 [5] | Ki [5]

CCCCOc1ccc(OCCCN2CCOCC2)cc1 [PRAMOXINE]
Not Active: IC50 [1] | Ki [1] | IC50 (Estrogen receptor beta) | IC50 (Cytochrome P450 2E1) | Ki (Cytochrome P450 2E1) | IC50 [2] | IC50 (Substance-P receptor) | IC50 [3] | IC50 [4] | IC50 [5] | Ki [5]

NC(=O)c1cnccn1 [PYRAZINAMIDE]
Not Active: IC50 [1] | Ki [1] | IC50 (Estrogen receptor beta) | IC50 (Cytochrome P450 2E1) | Ki (Cytochrome P450 2E1) | IC50 [2] | IC50 (Substance-P receptor) | IC50 [3] | IC50 [4] | IC50 [5] | Ki [5]

OC(CCN1CCCCC1)(c1ccccc1)C1CCCCC1 (configuration not stated) [TRIHEXYPHENIDYL]
Not Active: IC50 [1] | Ki [1] | IC50 (Estrogen receptor beta) | IC50 (Cytochrome P450 2E1) | Ki (Cytochrome P450 2E1) | IC50 [2] | IC50 (Substance-P receptor) | IC50 [3] | IC50 [4] | IC50 [5] | Ki [5]

CADMIUM DICHLORIDE
Not Active: IC50 [1] | Ki [1] | IC50 (Estrogen receptor beta) | Ki (Estrogen receptor beta) | IC50 (Cytochrome P450 2E1) | Ki (Cytochrome P450 2E1) | IC50 [2] | Ki [2] | IC50 (Substance-P receptor) | Ki (Substance-P receptor) | IC50 [3] | Ki [3] | IC50 [4] | Ki [4] | IC50 [5] | Ki [5]
